The record followed here is paper PMC8667045, “Into Deep Water: Optimizing BCL6 Inhibitors by Growing into a Solvated Pocket” (Journal of Medicinal Chemistry, 2021).

In general, solubility refers to the dissolved amount per volume that the medium holds. Lower therefore signals little dissolved substance. For orientation: IC50 means the concentration that inhibits the measured activity by half. A word on the Papp: it is a coefficient for how fast a substance crosses the barrier. A word on the logD: it is the decadic logarithm of the distribution of all forms, ionised or not, between an organic phase and buffer at a given pH. Lower therefore signals a more hydrophilic compound.

A short description of one data set: HPLC solubility assay. The settings on record: PBS buffer, PBS pH 7.4, 1% DMSO, room temperature. The format is physicochemical. Here is the method: 3. Supplementary experimental: physicochemical assays […]
3.2 HPLC solubility assay
DMSO. Following shaking of the suspension on a Bohdan Shaker at 500 rpm for 2 hours at room […]
200 µL of the supernatant was transferred to a 2 mL Agilent vial containing 50 µL of DMSO (Sigma […]
detection using an external standard which was prepared by pipetting 10 µL of the same batch of […]
The detail of the HPLC method is as following: chromatographic separation at 30°C is carried out over a 5 minute gradient elution method from 90:10 to 10:90 water:methanol (both modified with 0.1% formic acid) at a flow rate of 1.5 mL/min. Calibration curve is prepared by injecting 0.5, 2.5, and 5 µL of compound external standard.
62.5 µL of compound solubility sample.

Data set [1] deals with T1, BCL6 BTB domain (Homo sapiens, UniProt P41182). Description: biochemical. The following applies: for BCL6 TR-FRET pIC50 mean: mean of n replicates. The method, then: Supplementary experimental: protein production, purification and crystallography
3C protease cleavage site.
used without cleaving the tag, as a 6His was needed to bind to the anti-6His-Terbium antibody. For
For both plasmid constructs described above, transformed BL21-AI E. coli cells were grown in LB
carried out at 18 °C for 18 hours. Cells were harvested by centrifugation (5500 g for 30 minutes at 4
oC) and stored at -80 °C.
Cells were re-suspended in a buffer composed of 20 mM Tris pH 8, 250 mM NaCl, 1 mM MgCl2, 0.5
Cells were lysed by sonication followed by centrifugation at 21,000 g for 45 minutes at 4 °C. […]
The final protein was assessed for purity
and molar mass by SDS-PAGE and high-resolution mass spectrometry, respectively.
(§1) directly eluted from the HisTrap FF column without HRV-3C treatment, and submitted to Superdex75
gel filtration as described above. […]
2. Supplementary experimental: biological assay conditions
IC50 values were determined using
a sigmoidal four-parameter logistic fit equation.
A general note: Time-resolved FRET reads energy transfer from a long-lived donor to a nearby acceptor.

For data set [2], the target named is T1, BCL6 BTB domain. Description: Rapid X-ray screen: ligand density in extended pocket of BCL6 BTB domain. The settings on record: crystals soaked with compound. On the set-up: made in house; host or cells: E. coli BL21-AI.
Description: Furthermore, we speculated that these represent better starting points since the substituent can be modified further to derive additional interactions and more completely fill the extended pocket. […] Instead, we just checked for the presence of ligand density and, in particular, for electron density in the extended pocket.
as §1
gel filtration as described above.
NH2. A stock solution of WVIP peptide at 100 mM in 100 % DMSO was added to a 2 mg/mL solution
This mixture was then concentrated to a final
protein concentration of 4 mg/mL using a centrifugal concentrator with a 3 kDa molecular weight
complex plus 1 μL of a crystallisation solution consisting of 1 M K 2HPO4, 0.7 M NaH2PO4, 75 mM
drops, followed by 10-120 minutes incubation. Crystals were then cryo-protected in a solution
composed of the crystallisation reagent supplemented with 30 % ethylene glycol and cryo-cooled in
concentrated to a final protein concentration of 10 mg/mL using a centrifugal concentrator with a 3
kDa molecular weight cut-off. Crystals were grown at 18 °C in hanging drops composed of 1.5 μL of
and 0.80 M Na/K Tartrate, against 300 μL of crystallisation solution.
and compounds were soaked as described above for the other construct. Crystals were then cryo-
protected in a solution composed of the crystallisation reagent supplemented with 30 % ethylene
glycol and cryo-cooled in liquid nitrogen.
1.5 Crystallographic data collection, processing and refinement
X-ray data were collected at Diamond Light Source, Harwell campus, Oxfordshire, UK, on beamlines
Research, London, UK, on a Rigaku FRX-AFC11-VariMax Cu-VHF-Pilatus300K. Crystals obtained with […]

Data set [3] is described as follows: PAMPA passive permeability pH 7.4. The following applies: for PAMPA7.4: pH 7.4, passive permeability Pe. (In general: In PAMPA a lipid-coated filter parts donor from acceptor wells.)
Another data set can be described thus: Measured logD7.4. The format is physicochemical. The following applies: pH 7.4.
A further data set in a line: NMR solubility assay. The format is physicochemical. The settings on record: HEPES buffer, 5% DMSO, room temperature. Here is the method: 3. Supplementary experimental: physicochemical assays
The plate was then sealed and incubated at room temperature for 20 hours, without shaking. The plate was centrifuged again for 1 minute at […]
spectrometer equipped with a 5 mm TCI-CryoProbe. […]
deuterated solvent. […] All NMR data were acquired at the […]
contained 16k time-domain data points. Relaxation delay was set to 20 sec. […]

Setting [4] is: TR-FRET IC50 individual replicates, single replicates, italic values used 10nM BCL6, otherwise 1nM BCL6.
[5] abbreviates: read-out: BCL6 TR-FRET Geo Mean IC50, geometric mean of n replicates, supplement.
Where [6] appears, read: read-out: TR-FRET IC50, tables and figures.
Where [7] appears, read: read-out: TR-FRET IC50 individual replicates, single replicates, italic values used 10nM BCL6, otherwise 1nM BCL6.

Values after ≈ are worked out from the molar mass of the structure shown. Values joined by “and” are separate entries in the source; they are usually repeats but may differ in a detail not shown here. Identical values can stand only once. Like-named read-outs stand apart in the source and are kept apart here. Where only a bound is given, the exact number is not on record here.

Consider `Cn1c(=O)n(C)c2cc(Nc3ccnc(Cl)c3C#N)ccc21` [Compound 1], for which the solubility at 2 h in “HPLC solubility assay” was found to be 16 µM (≈ 5.02 µg/mL).
In the case of `Cn1c(=O)ccc2cc(Nc3ccnc(Cl)c3C#N)ccc21` [Compound 2, 2-Chloro-4-((1-methyl-2-oxo-1,2-dihydroquinolin-6-yl)amino)nicotinonitrile], the IC50 on BCL6 BTB domain [1] (setting [4]) is 2280 nM and 4290 nM and 4070 nM and 1380 nM; at BCL6 BTB domain [1] (setting [5]), 2720 nM; on BCL6 BTB domain [1] (setting [6]), 2700 nM and 2720 nM. The “BCL6 TR-FRET pIC50 mean” value at BCL6 BTB domain [1] is 5.57 and 5.565. Further, in the data set “HPLC solubility assay”, the solubility at 2 h turned out to be 12 µM (≈ 3.73 µg/mL).
On to `CN(C)c1cc(=O)[nH]c2ccc(Nc3ccnc(Cl)c3C#N)cc12` [Compound 8a, 2-Chloro-4-((4-(dimethylamino)-2-oxo-1,2-dihydroquinolin-6-yl)amino)nicotinonitrile], for which, on BCL6 BTB domain [2], the “Ligand density in extended pocket” value is “No”. Besides, the IC50 was 7010 nM and 4460 nM against BCL6 BTB domain [1] (setting [4]); 5570 nM on BCL6 BTB domain [1] (setting [5]); 5570 nM at BCL6 BTB domain [1] (setting [6]); 5520 nM on BCL6 BTB domain [1] (setting [7]). For the same compound, on BCL6 BTB domain [1], the “BCL6 TR-FRET pIC50 mean” value was 5.25 and 5.254.
Take `N#Cc1c(Nc2ccc3[nH]c(=O)cc(N4CCCCC4)c3c2)ccnc1Cl` [Compound 8b, 2-Chloro-4-((2-oxo-4-(piperidin-1-yl)-1,2-dihydroquinolin-6-yl)amino)nicotinonitrile]: the “Ligand density in extended pocket” value on BCL6 BTB domain [2] was “No”. Also, the IC50 against BCL6 BTB domain [1] (setting [4]) is 1570 nM and 1240 nM and 920 nM and 540 nM and 2320 nM; at BCL6 BTB domain [1] (setting [5]), 1180 nM; at BCL6 BTB domain [1] (setting [6]) it was 1180 nM. Moreover, the “BCL6 TR-FRET pIC50 mean” value on BCL6 BTB domain [1] was 5.93 and 5.929.
As for `CN1CCN(c2cc(=O)[nH]c3ccc(Nc4ccnc(Cl)c4C#N)cc23)CC1` [Compound 8c, 2-Chloro-4-((4-(4-methylpiperazin-1-yl)-2-oxo-1,2-dihydroquinolin-6-yl)amino)nicotinonitrile], the “Ligand density in extended pocket” value at BCL6 BTB domain [2] was “No”. The IC50 against BCL6 BTB domain [1] (setting [4]) is 5770 nM and 1240 nM and 2440 nM and 2900 nM; on BCL6 BTB domain [1] (setting [5]) it was 2640 nM; on BCL6 BTB domain [1] (setting [6]) it was 2640 nM; on BCL6 BTB domain [1] (setting [7]), 2550 nM. For the same compound, the “BCL6 TR-FRET pIC50 mean” value at BCL6 BTB domain [1] was 5.58 and 5.578.
With `N#Cc1c(Nc2ccc3[nH]c(=O)cc(N4CCOCC4)c3c2)ccnc1Cl` [Compound 8d, 2-Chloro-4-((4-morpholino-2-oxo-1,2-dihydroquinolin-6-yl)amino)nicotinonitrile], the “Ligand density in extended pocket” value at BCL6 BTB domain [2] was “No”. In addition, the IC50 on BCL6 BTB domain [1] (setting [4]) is 2660 nM and 2560 nM and 1470 nM; on BCL6 BTB domain [1] (setting [5]), 2130 nM; on BCL6 BTB domain [1] (setting [6]), 2130 nM; on BCL6 BTB domain [1] (setting [7]) it was 2100 nM and 2080 nM. In addition, the “BCL6 TR-FRET pIC50 mean” value on BCL6 BTB domain [1] is 5.67 and 5.672.
Turning to `Cn1cc(-c2cc(=O)[nH]c3ccc(Nc4ccnc(Cl)c4C#N)cc23)cn1` [Compound 8e, 2-Chloro-4-((4-(1-methyl-1H-pyrazol-4-yl)-2-oxo-1,2-dihydroquinolin-6-yl)amino)nicotinonitrile], the “Ligand density in extended pocket” value on BCL6 BTB domain [2] is on record as “Yes”. Further, the IC50 on BCL6 BTB domain [1] (setting [4]) is 1520 nM and 2190 nM; on BCL6 BTB domain [1] (setting [5]) it was 1820 nM; on BCL6 BTB domain [1] (setting [6]), 1820 nM. The “BCL6 TR-FRET pIC50 mean” value on BCL6 BTB domain [1] is 5.74 and 5.739.
Consider `CCNc1cc(=O)[nH]c2ccc(Nc3ccnc(Cl)c3C#N)cc12` [Compound 8f, 2-Chloro-4-((4-(ethylamino)-2-oxo-1,2-dihydroquinolin-6-yl)amino)nicotinonitrile], for which, on BCL6 BTB domain [2], the “Ligand density in extended pocket” value is recorded as “Yes”. Further, the IC50 against BCL6 BTB domain [1] (setting [4]) is 1660 nM and 680 nM and 1950 nM and 1130 nM and 1050 nM and 1910 nM; on BCL6 BTB domain [1] (setting [5]), 1310 nM; on BCL6 BTB domain [1] (setting [6]) it was 1310 nM. Moreover, the “BCL6 TR-FRET pIC50 mean” value at BCL6 BTB domain [1] was 5.883.
Consider `CNC(=O)C(C)Nc1cc(=O)[nH]c2ccc(Nc3ccnc(Cl)c3C#N)cc12` (centres unmarked) [Compound 12a, 2-((6-((2-Chloro-3-cyanopyridin-4-yl)amino)-2-oxo-1,2-dihydroquinolin-4-yl)amino)-N-methylpropanamide], for which the IC50 at BCL6 BTB domain [1] (setting [4]) was 620 nM and 490 nM and 580 nM and 510 nM and 660 nM and 470 nM and 460 nM and 500 nM and 740 nM and 480 nM and 650 nM; on BCL6 BTB domain [1] (setting [5]), 552 nM; at BCL6 BTB domain [1] (setting [6]) it was 550 nM. For the same compound, the “BCL6 TR-FRET pIC50 mean” value at BCL6 BTB domain [1] is 6.26 and 6.258. The same compound came in with an apparent permeability (Papp) in data set [3] (PAMPA, pH 7.4) of less than 0.2 ×10⁻⁶ cm/s. The same compound displayed a solubility at 2 h in the data set “HPLC solubility assay” of 37 µM (≈ 14.7 µg/mL).
For `CNC(=O)CNc1cc(=O)[nH]c2ccc(Nc3ccnc(Cl)c3C#N)cc12` [Compound 12e, 2-((6-((2-Chloro-3-cyanopyridin-4-yl)amino)-2-oxo-1,2-dihydroquinolin-4-yl)amino)-N-methylacetamide], the IC50 was 19900 nM and 74100 nM and 10200 nM and 22400 nM on BCL6 BTB domain [1] (setting [4]); 23800 nM on BCL6 BTB domain [1] (setting [5]); 23800 nM on BCL6 BTB domain [1] (setting [6]); 22800 nM on BCL6 BTB domain [1] (setting [7]). Besides, the “BCL6 TR-FRET pIC50 mean” value on BCL6 BTB domain [1] was 4.62 and 4.623. This compound had a solubility at 2 h in “HPLC solubility assay” of 35 µM (≈ 13.4 µg/mL).
Consider `CC(Nc1cc(=O)n(C)c2ccc(Nc3ccnc(Cl)c3C#N)cc12)c1ncco1` (centres unmarked) [Compound 13b, 2-Chloro-4-((1-methyl-4-((1-(oxazol-2-yl)ethyl)amino)-2-oxo-1,2-dihydroquinolin-6-yl)amino)nicotinonitrile], for which the PAMPA7.4 in data set [3] is 1.0 x10^-6 cms^-1. For the same compound, the concentration in solution in “HPLC solubility assay” (solubility at 2 h) came to 2.8 µM (≈ 1.18 µg/mL).
With `CC(Nc1cc(=O)n(C)c2ccc(Nc3ccnc(Cl)c3C#N)cc12)c1ncccn1` (centres unmarked) [Compound 13e, 2-Chloro-4-((1-methyl-2-oxo-4-((1-(pyrimidin-2-yl)ethyl)amino)-1,2-dihydroquinolin-6-yl)amino)nicotinonitrile], the PAMPA7.4 in data set [3] is 1.4 x10^-6 cms^-1. Moreover, the logD in “Measured logD7.4” is 1.4. Further, the solubility at 20 h in the data set “NMR solubility assay” is 249 µM (≈ 108 µg/mL).
For `Cn1c(=O)cc(NC(C)(C)c2ncccn2)c2cc(Nc3ccnc(Cl)c3C#N)ccc21` [Compound 13g, 2-Chloro-4-((1-methyl-2-oxo-4-((2-(pyrimidin-2-yl)propan-2-yl)amino)-1,2-dihydroquinolin-6-yl)amino)nicotinonitrile] the same measures were 1.8 x10^-6 cms^-1, 1.9 and 15 µM (≈ 6.69 µg/mL).
